Patent US20230293539A1, “MLL1-WDR5 PROTEIN-PROTEIN INTERACTION INHIBITOR COMPOUNDS AND USES THEREOF” (HUYABIO International, LLC, priority 2022, published 2023)
Where two headings read alike, the source gives them in different places.

How the values were obtained:
BRDT-BD1 = target: T1, BRDT-BD1 (Homo sapiens, UniProt Q58F21); assay: Selectivity panel (Table 3); assay type: binding
T1 construct: BRDT-BD1

PRMT5 = PRMT5 (Homo sapiens, UniProt O14744); assay: Selectivity panel (Table 3); assay type: biochemical
PRMT5, sequence (O14744 whole entry, species assumed): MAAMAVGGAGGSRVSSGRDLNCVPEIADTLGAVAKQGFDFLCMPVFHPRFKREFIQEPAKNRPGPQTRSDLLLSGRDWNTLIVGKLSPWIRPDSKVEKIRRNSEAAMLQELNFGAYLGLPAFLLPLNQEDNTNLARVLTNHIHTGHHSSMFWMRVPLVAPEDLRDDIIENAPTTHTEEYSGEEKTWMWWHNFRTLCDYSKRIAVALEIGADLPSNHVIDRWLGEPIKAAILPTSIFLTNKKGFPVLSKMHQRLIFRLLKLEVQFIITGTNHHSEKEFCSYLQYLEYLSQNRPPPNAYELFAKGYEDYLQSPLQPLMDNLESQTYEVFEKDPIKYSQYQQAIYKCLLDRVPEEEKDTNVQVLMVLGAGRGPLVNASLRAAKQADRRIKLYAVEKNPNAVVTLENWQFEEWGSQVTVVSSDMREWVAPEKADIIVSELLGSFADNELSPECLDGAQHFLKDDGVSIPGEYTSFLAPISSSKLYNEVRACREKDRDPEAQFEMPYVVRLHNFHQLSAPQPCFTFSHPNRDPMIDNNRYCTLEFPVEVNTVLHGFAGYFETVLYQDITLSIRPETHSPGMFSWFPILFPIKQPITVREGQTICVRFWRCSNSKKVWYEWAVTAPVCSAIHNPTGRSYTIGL
PRMT5, sequence (Q9BQA1 whole entry partner, species assumed): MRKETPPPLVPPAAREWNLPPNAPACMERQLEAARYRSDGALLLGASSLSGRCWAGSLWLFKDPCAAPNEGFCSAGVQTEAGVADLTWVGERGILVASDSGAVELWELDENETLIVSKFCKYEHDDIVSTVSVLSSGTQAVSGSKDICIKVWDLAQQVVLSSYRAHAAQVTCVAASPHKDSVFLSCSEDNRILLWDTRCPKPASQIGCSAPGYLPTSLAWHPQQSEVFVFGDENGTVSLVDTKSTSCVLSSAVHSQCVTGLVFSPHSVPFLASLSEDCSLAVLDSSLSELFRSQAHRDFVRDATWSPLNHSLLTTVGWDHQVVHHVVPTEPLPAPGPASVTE

Metabolite ID in plasma = assay type: in vitro ADME; conditions: HBI-2375 and metabolites in Mouse plasma
[1] = PK profile of HBI-2375 in plasma and brain in C57BL/6J mice; assay type: in vivo; conditions: for AUClast / AUC(0-t) / Tmax at 7 day / Cmax at 7 day / Tmax / Cmax / MRT last: C57BL/6J mice; for concentration at 24 h / Kp / AUC(0-t): C57BL/6J; for concentration at 24 h / Kp / AUC(0-t) / Tmax at 7 day / Cmax at 7 day / Tmax / Cmax / MRT last: mouse; for concentration at 24 h: read-out: Mean Brain Concentration, Cmin = 24 h; for AUClast Ratio, group 2 vs 1 / Cmax Ratio, group 2 vs 1: 80 vs 40 mg/kg PO; for AUClast ratios females/males / Cmax ratios females/males: all three dose groups
Experimental: EXAMPLE 4: PK profile of compound of Formula (IIIb) (HBI-2375, HYBI-84) in plasma and brain in C57BL/6J mice: This study was conducted in accordance with the Study Protocol and Pharmaron (Ningbo) TSP's Standard Operating Procedures (SOPs) following all regulatory protocols. This study was conducted under non-GLP environment.
Following single oral gavage administration of HBI-2375 at 40 mg/kg, 80 mg/kg, and 7-day repeat oral gavage administration at 80 mg/kg in C57BL/6J mice, concentrations of HBI-2375 in plasma and brain were determined by LC-MS/MS methods. […] The maximal concentrations of HBI-2375 in brain were all observed at 4 hr post-dose. […] The exposure of HBI-2375 in plasma and brain of females were closed to that of males, the ratios were 0.989-1.22 for plasma, and 1.10-1.34 for brain.

[2] = both sexes, single PO 40 mg/kg, brain, mean
[3] = both sexes, single PO 40 mg/kg, plasma, mean
[4] = both sexes, single PO 80 mg/kg, brain, mean
[5] = both sexes, single PO 80 mg/kg, plasma, mean
[6] = mice, 7-day consecutive dosing 80 mg/kg
[7] = mice, all dose groups, listed as HBI-2375

With `Cc1c(F)c(N)cc(C(=O)Nc2cc(-n3cc(C(=O)N4CCN(C)CC4)nn3)c(F)cc2N2C[C@@H](C)N(C)[C@@H](C)C2)c1Cl` [HYBI-084, 5-amino-2-chloro-4-fluoro-N-(4-fluoro-5-(4-(4-methylpiperazine-1-carbonyl)-1H-1,2,3-triazol-1-yl)-2-((3S,5R)-3,4,5-trimethylpiperazin-1-yl)phenyl)-3-methylbenzamide] the IC50 (BRDT-BD1) was > 1 µM, the IC50 (PRMT5) was > 1 µM and the “Relative Abundance (UV Peak Area % Total)” value (Metabolite ID in plasma) was 92.78%. For the same compound, the AUClast ([1]; 7-day repeat PO 80 mg/kg, brain, female) was 11446 ng·h/g, the AUClast ([1]; 7-day repeat PO 80 mg/kg, brain, male) was 8555 ng·h/g and the AUClast ([1]; 7-day repeat PO 80 mg/kg, brain, mean) was 10001 ng·h/g. For the same compound, the AUClast ([1]; single PO 40 mg/kg, brain, female) was 2179 ng·h/g, the AUClast ([1]; single PO 40 mg/kg, brain, male) was 1879 ng·h/g and the AUClast ([1]; single PO 40 mg/kg, brain, mean) was 2029 ng·h/g. For the same compound, the AUClast ([1]; single PO 80 mg/kg, brain, female) was 6129 ng·h/g, the AUClast ([1]; single PO 80 mg/kg, brain, male) was 5559 ng·h/g and the AUClast ([1]; single PO 80 mg/kg, brain, mean) was 5844 ng·h/g. The concentration at 24 h ([1]; brain, po, 80 mg/kg, Repeat PO Mouse at 80 mg/kg) was 136 ng/g, the concentration at 24 h ([1]; brain, po, 80 mg/kg, Single PO Mouse at 80 mg/kg) was 55 ng/g and the Kp ([1]; both sexes, brain, oral, 40 mg/kg, mice, single dosing 40 mg/kg, read-out: AUC exposure in brain as % of that in plasma) was 0.283 to 0.332. It also gave a Kp ([1]; both sexes, brain, oral, 80 mg/kg, mice, single dosing 80 mg/kg, read-out: AUC exposure in brain as % of that in plasma) of 0.361 to 0.388, a Kp ([1]; both sexes, brain, oral, mice, all dose groups, read-out: brain exposure as % of AUC in plasma) of 0.283 to 0.588 and an AUC(0-t) ([1]; both sexes, plasma, po, 40 mg/kg, single PO 40 mg/kg, mean) of 6.6 µg·h/mL. The AUC(0-t) ([1]; both sexes, plasma, po, 80 mg/kg, 7-day repeat PO 80 mg/kg, mean) was 17.7 µg·h/mL, the AUC(0-t) ([1]; both sexes, plasma, po, 80 mg/kg, single PO 80 mg/kg, mean) was 15.6 µg·h/mL and the Tmax at 7 day ([1]; both sexes, 7-day repeat PO 80 mg/kg, brain) was 4 h. It also gave a Cmax at 7 day ([1]; both sexes, 7-day repeat PO 80 mg/kg, brain, mean) of 807 ng/g, a Tmax at 7 day ([1]; both sexes, 7-day repeat PO 80 mg/kg, plasma) of 1 h and a Cmax at 7 day ([1]; both sexes, 7-day repeat PO 80 mg/kg, plasma, mean) of 2.53 µg/mL. The Tmax ([1]; both sexes, single PO 40 mg/kg, brain) was 4 h, the Cmax [1, 2] was 180 ng/g and the MRT last [1, 2] was 8.15 h. The Tmax ([1]; both sexes, single PO 40 mg/kg, plasma) was 0.5 h, the Cmax [1, 3] was 1.14 µg/mL and the MRT last [1, 3] was 5.26 h. For the same compound, the Tmax ([1]; both sexes, single PO 80 mg/kg, brain) was 4 h, the Cmax [1, 4] was 528 ng/g and the MRT last [1, 4] was 8.21 h. For the same compound, the Tmax ([1]; both sexes, single PO 80 mg/kg, plasma) was 0.5 h, the Cmax [1, 5] was 3.97 µg/mL and the MRT last [1, 5] was 5.16 h. It also gave a Kp ([1]; female, brain, po, 40 mg/kg, mice, single PO 40 mg/kg, female, read-out: AUClast Ratio Brain/Plasma) of 0.332, a Kp ([1]; female, brain, po, 80 mg/kg, mice, repeat PO 80 mg/kg, female, read-out: AUClast Ratio Brain/Plasma) of 0.588 and a Kp ([1]; female, brain, po, 80 mg/kg, mice, single PO 80 mg/kg, female, read-out: AUClast Ratio Brain/Plasma) of 0.388. The AUC(0-t) ([1]; female, plasma, po, 40 mg/kg, single PO 40 mg/kg) was 6.56 µg·h/mL, the AUC(0-t) ([1]; female, plasma, po, 80 mg/kg, 7-day repeat PO 80 mg/kg) was 19.5 µg·h/mL and the AUC(0-t) ([1]; female, plasma, po, 80 mg/kg, single PO 80 mg/kg) was 15.8 µg·h/mL. For the same compound, the Kp ([1]; male, brain, po, 40 mg/kg, mice, single PO 40 mg/kg, male, read-out: AUClast Ratio Brain/Plasma) was 0.283, the Kp ([1]; male, brain, po, 80 mg/kg, mice, repeat PO 80 mg/kg, male, read-out: AUClast Ratio Brain/Plasma) was 0.536 and the Kp ([1]; male, brain, po, 80 mg/kg, mice, single PO 80 mg/kg, male, read-out: AUClast Ratio Brain/Plasma) was 0.361. The AUC(0-t) ([1]; male, plasma, po, 40 mg/kg, single PO 40 mg/kg) was 6.64 µg·h/mL, the AUC(0-t) ([1]; male, plasma, po, 80 mg/kg, 7-day repeat PO 80 mg/kg) was 16 µg·h/mL and the AUC(0-t) ([1]; male, plasma, po, 80 mg/kg, single PO 80 mg/kg) was 15.4 µg·h/mL. The “drug accumulation in brain” value [1, 6] was “no obvious drug accumulation”, the “drug accumulation in plasma” value [1, 6] was “no obvious drug accumulation” and the “mean concentration at 24 hr post-dose as % of Cmax” value ([1]; mice, 7-day repeat PO 80 mg/kg, brain, both sexes) was 14.4-18.9%. For the same compound, the “mean concentration at 24 hr post-dose as % of Cmax” value ([1]; mice, 7-day repeat PO 80 mg/kg, plasma, both sexes) was 2.68-3.94%, the “AUClast Ratio, group 2 vs 1” value ([1]; mice, brain, female) was 2.81 and the “Cmax Ratio, group 2 vs 1” value ([1]; mice, brain, female) was 2.89. For the same compound, the “AUClast Ratio, group 2 vs 1” value ([1]; mice, brain, male) was 2.96, the “Cmax Ratio, group 2 vs 1” value ([1]; mice, brain, male) was 3.00 and the “AUClast Ratio, group 2 vs 1” value ([1]; mice, plasma, female) was 2.41. The “Cmax Ratio, group 2 vs 1” value ([1]; mice, plasma, female) was 3.47, the “AUClast Ratio, group 2 vs 1” value ([1]; mice, plasma, male) was 2.32 and the “Cmax Ratio, group 2 vs 1” value ([1]; mice, plasma, male) was 3.50. The distribution ([1]; mice, all dose groups) was “distributed to brain”, the “duration of brain exposure” value ([1]; mice, all dose groups) was 24 h and the “gender-related differences in exposure in brain” value [1, 7] was “No gender-related differences”. The “gender-related differences in exposure in plasma” value [1, 7] was “No gender-related differences”, the AUClast ratios females/males ([1]; mice, brain) was 1.10-1.34 and the Cmax ratios females/males ([1]; mice, brain) was 1.11-1.24. The “AUClast ratios 7-day repeat vs single-dose 80 mg/kg” value ([1]; mice, brain, both sexes) was 1.54-1.87, the “AUClast ratios 80 vs 40 mg/kg single dose” value ([1]; mice, brain, both sexes) was 2.81-2.96 and the “Cmax ratios 7-day repeat vs single-dose 80 mg/kg” value ([1]; mice, brain, both sexes) was 1.44-1.60. The AUClast ratios females/males ([1]; mice, plasma) was 0.989-1.22, the Cmax ratios females/males ([1]; mice, plasma) was 0.967-1.27 and the “AUClast ratios 7-day repeat vs single-dose 80 mg/kg” value ([1]; mice, plasma, both sexes) was 1.04-1.23.
